Reference: publication PMC3914206

Legend:
Assay type in all cases: binding
panel of 442 kinases [1] = target: T1, panel of 442 kinases (Homo sapiens, UniProt P16591); conditions: Compound Concentration 10 µM
T1 construct: purchased KINOMEscan
Description: (§1) We assessed the selectivity of members of this scaffold using the KINOMEscan methodology across a near comprehensive panel of 442 kinases [[18,27]].

panel of 442 kinases [2] = target: T2, panel of 442 kinases (Homo sapiens, UniProt P42681); conditions: kinase TXK; compound concentration 10 µM
T2 construct: purchased KINOMEscan
T2 sequence (P42681 1-527): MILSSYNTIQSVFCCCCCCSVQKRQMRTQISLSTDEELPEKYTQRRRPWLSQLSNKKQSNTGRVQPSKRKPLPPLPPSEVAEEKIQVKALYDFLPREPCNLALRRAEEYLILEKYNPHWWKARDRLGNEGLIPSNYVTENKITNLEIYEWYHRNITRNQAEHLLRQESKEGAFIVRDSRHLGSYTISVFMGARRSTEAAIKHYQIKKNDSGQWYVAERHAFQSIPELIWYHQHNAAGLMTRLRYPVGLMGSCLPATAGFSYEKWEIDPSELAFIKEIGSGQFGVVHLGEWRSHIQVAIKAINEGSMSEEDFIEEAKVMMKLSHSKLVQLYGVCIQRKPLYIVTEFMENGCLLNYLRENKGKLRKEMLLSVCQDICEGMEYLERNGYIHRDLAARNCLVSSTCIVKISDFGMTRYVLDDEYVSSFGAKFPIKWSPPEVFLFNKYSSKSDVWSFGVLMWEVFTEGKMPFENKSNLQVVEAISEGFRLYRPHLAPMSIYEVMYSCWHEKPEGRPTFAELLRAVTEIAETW
Description: as §1

panel of 442 kinases [3] = target: T3, panel of 442 kinases (Homo sapiens, UniProt P49759); conditions: Compound Concentration 10 µM
T3 construct: purchased KINOMEscan
Description: as §1

T3 sequence (P49759 whole entry): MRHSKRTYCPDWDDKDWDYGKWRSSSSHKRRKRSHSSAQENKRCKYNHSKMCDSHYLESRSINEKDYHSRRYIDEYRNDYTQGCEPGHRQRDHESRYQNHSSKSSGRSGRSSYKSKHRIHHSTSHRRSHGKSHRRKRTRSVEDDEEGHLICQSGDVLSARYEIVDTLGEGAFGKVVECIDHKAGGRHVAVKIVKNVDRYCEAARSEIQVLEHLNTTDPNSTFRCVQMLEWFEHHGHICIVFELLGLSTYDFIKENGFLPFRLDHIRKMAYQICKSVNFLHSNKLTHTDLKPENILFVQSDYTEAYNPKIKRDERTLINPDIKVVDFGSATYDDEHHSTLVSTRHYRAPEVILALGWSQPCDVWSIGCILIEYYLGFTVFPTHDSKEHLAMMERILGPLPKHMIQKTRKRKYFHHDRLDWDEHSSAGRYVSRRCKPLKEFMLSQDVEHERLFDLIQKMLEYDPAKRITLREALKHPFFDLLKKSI
T1 sequence (P16591 whole entry): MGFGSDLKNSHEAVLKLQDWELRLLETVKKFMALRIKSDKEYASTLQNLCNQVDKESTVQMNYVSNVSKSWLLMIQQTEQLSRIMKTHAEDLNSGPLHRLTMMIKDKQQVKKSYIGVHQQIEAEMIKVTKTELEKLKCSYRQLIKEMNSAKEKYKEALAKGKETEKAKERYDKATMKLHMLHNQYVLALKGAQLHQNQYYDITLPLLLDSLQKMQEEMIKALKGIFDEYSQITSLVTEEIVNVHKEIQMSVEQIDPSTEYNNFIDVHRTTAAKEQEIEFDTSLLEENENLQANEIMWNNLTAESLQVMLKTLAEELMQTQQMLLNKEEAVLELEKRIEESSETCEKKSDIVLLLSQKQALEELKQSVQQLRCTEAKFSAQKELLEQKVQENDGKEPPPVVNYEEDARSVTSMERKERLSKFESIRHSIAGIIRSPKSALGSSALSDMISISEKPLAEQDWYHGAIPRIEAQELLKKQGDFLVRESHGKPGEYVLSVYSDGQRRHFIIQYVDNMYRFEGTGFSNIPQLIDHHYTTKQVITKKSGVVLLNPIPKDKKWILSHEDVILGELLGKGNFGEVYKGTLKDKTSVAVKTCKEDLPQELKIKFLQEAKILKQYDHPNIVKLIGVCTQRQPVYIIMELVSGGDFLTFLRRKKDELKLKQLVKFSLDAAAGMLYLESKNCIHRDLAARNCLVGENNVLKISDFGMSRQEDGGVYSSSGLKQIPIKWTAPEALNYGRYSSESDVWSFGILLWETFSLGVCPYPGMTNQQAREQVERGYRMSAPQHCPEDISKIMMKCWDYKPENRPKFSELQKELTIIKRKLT

SMILES | KINOMEscan: FER (panel of 442 kinases [1]) | % Ctrl, TXK (panel of 442 kinases [2]) | KINOMEscan: CLK1 (panel of 442 kinases [3])
COc1cc(C(=O)N2CCC(N3CCN(C)CC3)CC2)ccc1Nc1ncc2c(n1)N(C)c1ccccc1C(=O)N2C [15 (LRRK2-IN-1)] | 51 | 91 % Ctrl | 28
COc1cc(C(=O)N2CCC(N3CCN(C)CC3)CC2)ccc1Nc1ncc2c(n1)N1CCc3cccc(c31)C(=O)N2C [Compound 24] | 64 | 93 % Ctrl | 11
COc1cc(C(=O)N2CCC(N3CCN(C)CC3)CC2)ccc1Nc1ncc2c(n1)N(C1CCCC1)c1ccccc1C(=O)N2C [Compound 25, 11-cyclopentyl-2-((2-methoxy-4-(4-(4-methylpiperazin-1-yl)piperidine-1-carbonyl)phenyl)amino)-5-methyl-5H-benzo[e]pyrimido[5,4-b][1,4]diazepin-6(11H)-one] | 38 | 95 % Ctrl | 100
CCOc1cc(C(=O)N2CCC(N3CCN(C)CC3)CC2)ccc1Nc1ncc2c(n1)N(C1CCCC1)c1ccccc1C(=O)N2C [Compound 26] | 96 | 100 % Ctrl | 100
